Measurements published in the OPERA property sets (Mansouri et al. 2018).

Point of comparison: `CCOC(=O)C(C#N)=Cc1ccccc1`, logP 2.43. Against it:
- CC1=CC(=O)C=C(Br)C1=O — lower, 1.21
- CC1N=C(c2ccccc2)c2cc(Cl)ccc2NC1=O (configuration not stated) — higher, 3.33
- C=CCOC(C)=O — lower, 0.97
- CCCNC(=O)c1cccnc1 — lower, 0.66
- COC(=O)CCCCC(C)=O — lower, 0.55
- OCCNCCO — lower, -1.43
- O=NN(CCCl)C(=O)NC1CCCCC1 — higher, 2.83
- COC(=O)CCCO — lower, -0.06
- COc1cc(CC(C)N)cc(OC)c1Br (configuration not stated) — within 0.2 log units, 2.44
- Cc1cccs1 — within 0.2 log units, 2.33
- C=CCC1(CC=C)C(=O)NC(=O)N(C)C1=O — lower, 1.55
- NC(=O)N(CCCl)N=O — lower, 0.57
- CCC1C(=O)NC(=O)NC1=O — lower, -0.35
- CCN(CC)CCNC(=O)c1cc(Cl)ccc1OC — higher, 3.11
- CCCC(C)=O — lower, 0.91
- COc1ccc2c(c1)N(CCCN(C)C)c1ccccc1S2 — higher, 4.9
- CCOc1cccc(NC(C)=O)c1 — lower, 1.82
- Cc1ccc(Cl)cc1 — higher, 3.33
- CCCOc1cncc(C)n1 — within 0.2 log units, 2.29
- NC(=O)c1cc(N2CC2)c([N+](=O)[O-])cc1[N+](=O)[O-] — lower, -0.02
- CC(=O)O[C@H]1C[C@H](O[C@H]2[C@@H](O)C[C@H](O[C@H]3[C@@H](O)C[C@H](O[C@H]4CC[C@@]5(C)[C@H](CC[C@@H]6[C@@H]5C[C@@H](O)[C@]5(C)[C@@H](C7=CC(=O)OC7)CC[C@]65O)C4)O[C@@H]3C)O[C@@H]2C)O[C@H](C)[C@H]1O[C@@H]1O[C@H](CO)[C@@H](O)[C@H](O)[C@H]1O — lower, 0.07
- O=C1C=CC(=O)c2ccccc21 — lower, 1.71
- C=C1C(C)C2C(Cc3ccccc3)NC(=O)C23OC(=O)C=CC(O)CCCC(C)CC=CC3C1O (configuration not stated) — higher, 3.37
- Cc1ccc2cc(C)c(C)cc2c1 — higher, 4.73
- C/C=N/O — lower, -0.13
- COC(=O)Cc1cccs1 — lower, 1.51
- Cc1ccc(OCC(=O)NNC(C)C)cc1 — lower, 1.81
- OCc1ccoc1 — lower, 0.3
- C1OCOCO1 — lower, -0.43
- CC(C)(C)NCCO — lower, 0.41
- N#Cc1cccc(F)c1 — lower, 1.47
- C=CBr — lower, 1.57
- CN(C)C(=O)OCc1ccc([N+](=O)[O-])cc1 — lower, 1.95
- CCOC(=O)c1cc(O)c(O)c(O)c1 — lower, 1.3
- CNC(=O)Oc1cccc(C(C)C)c1 — higher, 2.63
- C#CC — lower, 0.94
- COc1ccc(OC(C)=O)cc1 — lower, 1.54
- Cc1ccc(OCC(=O)O)cc1 — lower, 1.86
- NNC(=O)c1cccc(O)c1 — lower, -0.08
- Nc1cc(C(F)(F)F)ccc1Cl — higher, 3.06
- O=C(NC(CO)C(O)c1ccc([N+](=O)[O-])cc1)C(F)(F)F (configuration not stated) — lower, 1.07
- CC(=O)OCC(=O)[C@@]1(O)[C@H](OC(C)=O)C[C@H]2[C@@H]3CCC4=CC(=O)C=C[C@]4(C)[C@@]3(F)[C@@H](O)C[C@@]21C — lower, 1.92
- CCCCCCCC(=O)O — higher, 3.05
- c1cnc2c(c1)ccc1cccnc12 — lower, 1.78
- c1cocn1 — lower, 0.12
- CCNC(=O)Nc1ccccc1 — lower, 1.64
- Nc1ccc2ccccc2c1 — within 0.2 log units, 2.28
- CCc1cc(-c2ccccc2)nnc1NCCN1CCOCC1 — within 0.2 log units, 2.53
- OCc1ccc(Cl)cc1 — lower, 1.96
- O=C(NC(CO)C(O)c1ccc([N+](=O)[O-])cc1)C(F)F (configuration not stated) — lower, 0.42
- Nc1ccc(C(=O)Oc2cccc(Br)c2)c(O)c1 — higher, 3.84
- CC(C)[C@H](C(=O)OC(C#N)c1cccc(Oc2ccccc2)c1)c1ccc(OC(F)F)cc1 (some centres not stated) — higher, 6.2
- Cc1c[nH]c(=O)[nH]c1=O — lower, -0.62
- CCc1nnc(N)o1 — lower, -0.3
- C=CCCBr — within 0.2 log units, 2.53
- CCC1(CCC(C)C)C(=O)NC(=O)NC1=O — lower, 2.07
- O=C[C@H](O)[C@@H](O)[C@H](O)[C@H](O)C(=O)O — lower, -2.57
- CC(=O)OC(OC(C)=O)c1ccccc1 — lower, 1.62
- c1ccc(C23CCN(CC2)CC3)cc1 — within 0.2 log units, 2.54
- CCC(C)C(NCc1ccccc1)C(=O)O (configuration not stated) — lower, -0.27
- CC1(C)N=C(N)N=C(N)N1c1ccc(Br)cc1 — lower, 1.09
- CCC(C)C(=O)Nc1ccccc1 (configuration not stated) — within 0.2 log units, 2.56
- CCCC[N+](=O)[O-] — lower, 1.47
- CC1=C(C(=O)Nc2ccccc2)SCCO1 — lower, 2.14
- C1=C(c2ccccc2)CCCC1 — higher, 4.53
- COc1cc(C(=O)O)cc(OC)c1O — lower, 1.04
- Nc1cn[nH]c1 — lower, -1.09
- OCc1ccc2cccnc2c1 — lower, 1.29
- CCN(CC)CC(=O)NC1CCc2ccccc21 (configuration not stated) — higher, 2.74
- CC1CCCCN1N=O (configuration not stated) — lower, 0.71
- C1OC1C1CO1 (configuration not stated) — lower, -0.52
- CC(=O)Oc1ccccc1Cl — lower, 2.18
- Oc1cccc(C(F)(F)F)c1 — higher, 2.95
- CCOP(=O)(NC(C)C)Oc1ccc(SC)c(C)c1 (configuration not stated) — higher, 3.23
- O=C(COc1ccccc1)N1CCOCC1 — lower, 0.74
- COC(=O)c1ccc(-c2ncc([N+](=O)[O-])n2C)cc1 — lower, 1.63
- CN1C(=O)CN=C(c2ccccc2F)c2cc(Cl)ccc21 — higher, 2.75
- CC(C)(C)c1ccccc1OCC(=O)O — higher, 3.33
- FC(F)F — lower, 0.64
- C=CCc1ccccc1OCC(O)CNC(C)C (configuration not stated) — higher, 3.1
- CC(=O)C(=Cc1ccccc1C)C(C)=O — lower, 1.98
